Test results taken from patent publication US9115127B2 (AMGEN INC., priority 2010, dated 2015).
Where a name gives a salt, the structure may show the parent alone.

Biological target: T1, wild-type human ALK (cytoplasmic domain, amino acids 1058-1620, N-terminal GST fusion) (Homo sapiens, UniProt Q9UM73)
T1 construct: The cytoplasmic domain (amino acids 1058-1620) of wild-type human ALK; GST (N); made in house; host or cells: SF9 insect cells
Test: ALK Inhibition in Enzyme Assay (Lance TR-FRET kinase assay)
Assay type: biochemical
Description: ALK Inhibition in Enzyme Assay
Kinase activity of the purified protein was assessed using a Lance® TR-FRET assay. […] The reaction was allowed to proceed for 90 minutes at room temperature and was then terminated with 20 mM EDTA in 50 mM Tris (pH 7.5), 100 mM NaCl, 0.05% BSA, and 0.1% Tween-20. Phosphorylation of the peptide substrate was detected using the Lance® detection reagents streptavidin-allophycocyanin (SA-APC) and Eu-W1024 anti-phosphotyrosine antibody (PT66) from Perkin Elmer Life Sciences (Waltham, Mass.). The plates were read on a RUBY star plate reader (BMG LABTECH, Cary, N.C.) with an excitation wavelength of 320 nm.

T1 sequence (Q9UM73 1058-1620): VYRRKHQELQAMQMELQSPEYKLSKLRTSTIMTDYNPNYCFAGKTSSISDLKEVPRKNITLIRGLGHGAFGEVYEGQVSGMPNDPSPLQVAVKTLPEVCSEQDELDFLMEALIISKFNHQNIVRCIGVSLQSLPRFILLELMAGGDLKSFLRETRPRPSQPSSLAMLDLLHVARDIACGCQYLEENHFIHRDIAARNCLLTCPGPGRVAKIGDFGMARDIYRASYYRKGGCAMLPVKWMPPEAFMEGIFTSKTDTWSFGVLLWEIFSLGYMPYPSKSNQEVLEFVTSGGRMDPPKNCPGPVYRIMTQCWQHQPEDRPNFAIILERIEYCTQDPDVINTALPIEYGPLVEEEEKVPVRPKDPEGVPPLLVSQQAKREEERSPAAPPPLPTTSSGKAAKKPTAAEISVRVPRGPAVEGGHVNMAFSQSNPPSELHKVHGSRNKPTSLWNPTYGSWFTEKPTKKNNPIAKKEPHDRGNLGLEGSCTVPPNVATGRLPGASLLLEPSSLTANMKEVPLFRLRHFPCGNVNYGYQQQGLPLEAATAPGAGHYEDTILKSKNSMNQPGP

Structure (SMILES)	IC50
CC(C)NC[C@H]1CC[C@@H](n2/c(=N/C(=O)c3ccc(F)cc3)[nH]c3ccc(CN4CCCCC4)cc32)CC1 [Example 36, (E)-4-Fluoro-N-(1-(cis-4-((isopropylamino)methyl)cyclohexyl)-6-(piperidin-1-ylmethyl)-1H-benzo[d]imidazol-2(3H)-ylidene)benzamide]	100 to 1000 nM
O=C(/N=c1\[nH]c2ccc(CN3CCCCC3)cc2n1[C@H]1CC[C@@H](CO)CC1)c1ccc(F)cc1 [Example 37, (E)-4-Fluoro-N-(1-(cis-4-(hydroxymethyl)cyclohexyl)-6-(piperidin-1-ylmethyl)-1H-benzo[d]imidazol-2(3H)-ylidene)benzamide]	100 to 1000 nM
CC(C)CCNC(=O)[C@H]1CC[C@@H](n2/c(=N/C(=O)c3ccc(F)cc3)[nH]c3ccc(CN4CCCCC4)cc32)CC1 [Example 40, (E)-4-Fluoro-N-(1-(cis-4-(isopentylcarbamoyl)cyclohexyl)-6-(piperidin-1-ylmethyl)-1H-benzo[d]imidazol-2(3H)-ylidene)benzamide]	50 to 100 nM
O=C(/N=c1\[nH]c2ccc(CN3CCOCC3)cc2n1[C@H]1CC[C@@H](C(=O)O)CC1)c1ccc(F)cc1 [Example 42, cis-4-((E)-2-(4-Fluorobenzoylimino)-6-(morpholinomethyl)-2,3-dihydro-1H-benzo[d]imidazol-1-yl)cyclohexanecarboxylic acid]	1000 to 5000 nM
O=C(/N=c1\[nH]c2ccc(CN3CCCCC3)cc2n1[C@H]1CC[C@@H](C(=O)Nc2nccs2)CC1)c1ccc(F)cc1 [Example 49, (E)-4-Fluoro-N-(6-(piperidin-1-ylmethyl)-1-(cis-4-(thiazol-2-ylcarbamoyl)cyclohexyl)-1H-benzo[d]imidazol-2(3H)-ylidene)benzamide]	50 to 100 nM
C[C@@H]1CN(C(=O)OC(C)(C)C)CCN1C(=O)[C@H]1CC[C@@H](n2/c(=N/C(=O)c3ccc(F)cc3)[nH]c3cnc(OCCN4CCCCC4)cc32)CC1 [Example 56, (R)-tert-Butyl 4-(cis-4-((E)-2-(4-fluorobenzoylimino)-6-(2-(piperidin-1-yl)ethoxy)-2,3-dihydro-1H-imidazo[4,5-c]pyridin-1-yl)cyclohexanecarbonyl)-3-methylpiperazine-1-carboxylate]	100 to 1000 nM
C[C@@H]1CN(C(=O)OC(C)(C)C)CCN1C(=O)[C@H]1CC[C@@H](n2/c(=N/C(=O)c3ccc(C#N)cc3)[nH]c3cnc(OCCN4CCCCC4)cc32)CC1 [Example 57, (R)-tert-Butyl 4-(cis-4-((E)-2-(4-cyanobenzoylimino)-6-(2-(piperidin-1-yl)ethoxy)-2,3-dihydro-1H-imidazo[4,5-c]pyridin-1-yl)cyclohexanecarbonyl)-3-methylpiperazine-1-carboxylate]	< 50 nM
C[C@@H]1CNCCN1C(=O)[C@H]1CC[C@@H](n2/c(=N/C(=O)c3ccc(C#N)cc3)[nH]c3cnc(OCCN4CCCCC4)cc32)CC1 [Example 58, (E)-4-Cyano-N-(1-(cis-4-((R)-2-methylpiperazine-1-carbonyl)cyclohexyl)-6-(2-(piperidin-1-yl)ethoxy)-1H-imidazo[4,5-c]pyridin-2(3H)-ylidene)benzamide]	< 50 nM
C[C@@H]1CNCCN1C(=O)[C@H]1CC[C@@H](n2/c(=N/C(=O)c3ccc(F)cc3)[nH]c3cnc(OCCN4CCCCC4)cc32)CC1 [Example 59, (E)-4-Fluoro-N-(1-(cis-4-((R)-2-methylpiperazine-1-carbonyl)cyclohexyl)-6-(2-(piperidin-1-yl)ethoxy)-1H-imidazo[4,5-c]pyridin-2(3H)-ylidene)benzamide]	< 50 nM
C[C@H]1CN(C(=O)[C@H]2CC[C@@H](n3/c(=N/C(=O)c4ccc(F)cc4)[nH]c4cnc(OCCN5CCCCC5)cc43)CC2)CCN1C(=O)OC(C)(C)C [Example 60, (S)-tert-Butyl 4-(cis-4-((E)-2-(4-fluorobenzoylimino)-6-(2-(piperidin-1-yl)ethoxy)-2,3-dihydro-1H-imidazo[4,5-c]pyridin-1-yl)cyclohexanecarbonyl)-2-methylpiperazine-1-carboxylate]	1000 to 5000 nM
C[C@H]1CN(C(=O)[C@H]2CC[C@@H](n3/c(=N/C(=O)c4ccc(F)cc4)[nH]c4cnc(OCCN5CCCCC5)cc43)CC2)CCN1 [Example 61, (E)-4-Fluoro-N-(1-(cis-4-((S)-3-methylpiperazine-1-carbonyl)cyclohexyl)-6-(2-(piperidin-1-yl)ethoxy)-1H-imidazo[4,5-c]pyridin-2(3H)-ylidene)benzamide]	< 50 nM
C[C@H]1CN(C(=O)[C@H]2CC[C@@H](n3/c(=N/C(=O)c4ccccc4)[nH]c4cnc(OCCN5CCCCC5)cc43)CC2)CCN1 [Example 62]	50 to 100 nM
CC(C)NC(=O)[C@]1(O)CC[C@H](n2/c(=N/C(=O)c3ccc(F)cc3)[nH]c3cnc(OCCN4CCCCC4)cc32)CC1 [Example 63, (E)-4-Fluoro-N-(1-(trans-4-hydroxy-4-(isopropylcarbamoyl)cyclohexyl)-6-(2-(piperidin-1-yl)ethoxy)-1H-imidazo[4,5-c]pyridin-2(3H)-ylidene)benzamide]	50 to 100 nM
CC(C)(C)OC(=O)N1CCC(n2/c(=N/C(=O)c3ccccc3)[nH]c3cnc(OCCN4CCCCC4)cc32)CC1 [Example 64, (E)-tert-Butyl 4-(2-(benzoylimino)-6-(2-(piperidin-1-yl)ethoxy)-2,3-dihydro-1H-imidazo[4,5-c]pyridin-1-yl)piperidine-1-carboxylate]	100 to 1000 nM

More lines, now with the values ahead:

IC50	Structure (SMILES)
< 50 nM	C=CCNS(=O)(=O)c1cc(C(=O)/N=c2\[nH]c3ccc(CN4CCCCC4)cc3n2[C@H]2CC[C@@H](C(N)=O)CC2)ccc1F [Example 38, (E)-3-(N-Allylsulfamoyl)-N-(1-(cis-4-carbamoylcyclohexyl)-6-(piperidin-1-ylmethyl)-1H-benzo[d]imidazol-2(3H)-ylidene)-4-fluorobenzamide]
< 50 nM	O=C(/N=c1\[nH]c2ccc(CN3CCCCC3)cc2n1[C@H]1CC[C@@H](C(=O)NCC(F)(F)F)CC1)c1ccc(F)cc1 [Example 39, (E)-4-Fluoro-N-(6-(piperidin-1-ylmethyl)-1-(cis-4-(2,2,2-trifluoroethylcarbamoyl)cyclohexyl)-1H-benzo[d]imidazol-2(3H)-ylidene)benzamide]
< 50 nM	CC(C)NC(=O)[C@H]1CC[C@@H](n2/c(=N/C(=O)c3ccc(F)cc3)[nH]c3ccc(CN4CCOCC4)cc32)CC1 [Example 41, (E)-4-Fluoro-N-(1-(cis-4-(isopropylcarbamoyl)cyclohexyl)-6-(morpholinomethyl)-1H-benzo[d]imidazol-2(3H)-ylidene)benzamide]
< 50 nM	COC(=O)[C@H]1CC[C@@H](n2/c(=N/C(=O)c3ccc(F)cc3)[nH]c3cnc(OCCN4CCCCC4)cc32)CC1 [Example 44, cis-Methyl 4-((E)-2-(4-fluorobenzoylimino)-6-(2-(piperidin-1-yl)ethoxy)-2,3-dihydro-1H-imidazo[4,5-c]pyridin-1-yl)cyclohexanecarboxylate]
< 50 nM	CC(C)NC(=O)[C@H]1CC[C@@H](n2/c(=N/C(=O)c3ccc(F)cc3)[nH]c3cnc(OCCN4CCCCC4)cc32)CC1 [Example 45, (E)-4-Fluoro-N-(1-(cis-4-(isopropylcarbamoyl)cyclohexyl)-6-(2-(piperidin-1-yl)ethoxy)-1H-imidazo[4,5-c]pyridin-2(3H)-ylidene)benzamide]
< 50 nM	CC(C)N(C)C(=O)[C@H]1CC[C@@H](n2/c(=N/C(=O)c3ccc(F)cc3)[nH]c3ccc(CN4CCCCC4)cc32)CC1 [Example 46, (E)-4-Fluoro-N-(1-(cis-4-(isopropyl(methyl)carbamoyl)cyclohexyl)-6-(piperidin-1-ylmethyl)-1H-benzo[d]imidazol-2(3H)-ylidene)benzamide]
< 50 nM	O=C(/N=c1\[nH]c2ccc(CN3CCCCC3)cc2n1[C@H]1CC[C@@H](C(=O)N2CCNCC2)CC1)c1ccc(F)cc1 [Example 47, (E)-4-Fluoro-N-(1-(cis-4-(piperazine-1-carbonyl)cyclohexyl)-6-(piperidin-1-ylmethyl)-1H-benzo[d]imidazol-2(3H)-ylidene)benzamide]
< 50 nM	CC(C)NC(=O)[C@H]1CC[C@@H](n2/c(=N/C(=O)c3ccc(F)cc3)[nH]c3ccc(CN4CCC(CC(=O)O)CC4)cc32)CC1 [Example 48, 2-(1-(((E)-2-(4-Fluorobenzoylimino)-3-(cis-4-(isopropylcarbamoyl)cyclohexyl)-2,3-dihydro-1H-benzo[d]imidazol-5-yl)methyl)piperidin-4-yl)acetic acid]
< 50 nM	CC(C)NC(=O)[C@H]1CC[C@@H](n2/c(=N/C(=O)c3ccc(F)cc3)[nH]c3cnc(OCCN4CCOCC4)cc32)CC1 [Example 51, (E)-4-Fluoro-N-(1-(cis-4-(isopropylcarbamoyl)cyclohexyl)-6-(2-morpholinoethoxy)-1H-imidazo[4,5-c]pyridin-2(3H)-ylidene)benzamide]
< 50 nM	CC(C)NC(=O)[C@H]1CC[C@@H](n2/c(=N/C(=O)c3ccc(F)cc3)[nH]c3ccc(CN4CCC[C@@H]4C(=O)O)cc32)CC1 [Example 53, (R)-1-(((E)-2-(4-Fluorobenzoylimino)-3-(cis-4-(isopropylcarbamoyl)cyclohexyl)-2,3-dihydro-1H-benzo[d]imidazol-5-yl)methyl)pyrrolidine-2-carboxylic acid hydrochloride]
< 50 nM	CC(C)NC(=O)[C@H]1CC[C@@H](n2/c(=N/C(=O)c3ccc(F)cc3)[nH]c3ccc(CN4CCC[C@H]4C(=O)O)cc32)CC1 [Example 54, (S)-1-(((E)-2-(4-Fluorobenzoylimino)-3-(cis-4-(isopropylcarbamoyl)cyclohexyl)-2,3-dihydro-1H-benzo[d]imidazol-5-yl)methyl)pyrrolidine-2-carboxylic acid hydrochloride]
